Laboratory results taken from patent publication US20140106390A1, “BIOMARKERS FOR THE TREATMENT OF MULTIPLE MYELOMA” (CELGENE CORPORATION, priority 2011, published 2014).

What was measured:
[1] = compared with the racemic mixture; cited from earlier work
serum M-protein = test: Tumor growth inhibition (TGI) model for pomalidomide single agent fitted to serum M-protein data, Phase I/II pomalidomide study; assay type: in vivo, patients; conditions: population estimate
Experimental: The Phase I segment investigates whether pomalidomide single agent dose could be escalated up to 5 mg daily using the cyclic schedule. The Phase II segment has progression free survival (PFS) as the primary endpoint and an interim analysis is planned at 50% of the events.
A semi-mechanistic exposure-driven tumor growth inhibition (TGI) model was used to model serum M-protein data (taken as a marker of tumor size) as function of time and drug dose levels. The TGI model is described by the following differential equation system: […]
where y(t) is the at time t with y0 value at baseline (g/L),
KL, is the rate of M-protein level increase (tumor growth rate) (week^−1),
KD, is the rate of drug-induced M-protein decrease (drug potency, mg^−1.week^−1)
KD decreases with time (from KD,0 at time 0, full effect) with the rate constant λ, (week^−1)
D (t) is the amount of drug at the site of action (mg) (“KPD model”) (see Jacqim et al., J. Pharmacokinet. Pharmacodyn. (2007), 31: 57-85),
Kp is the elimination rate constant from the virtual biophase compartment (week^−1).
Model parameters were estimated by maximum likelihood in non-linear mixed effect model using NONMEM VI level 1.0 FOCE method with interaction (Beal et al., NONMEM user's guide. (1992) San Francisco: University of California at San Francisco NONMEM Project Group). […]

[2] = Phase Ib ascending dose study of pomalidomide (MTD); assay type: in vivo; conditions: 45 relapsed and refractory multiple myeloma patients
Experimental: M-protein measurements entered from data with pomalidomide in relapsed and refractory multiple myeloma patients consists of one completed and two ongoing studies. In a Phase Ib ascending dose study in 45 patients, the MTD of pomalidomide was 2 mg administered daily or 5 mg administered on an every other day schedule. These subjects tolerated alternate day dosing better than daily dosing based on dose-limiting toxicity (DLT), however, the AE profiles were similar for both dosing regimens.

| Structure (SMILES) | potency [1] | λ, rate constant of decrease of KD with time (resistance appearance), estimate (serum M-protein) [wk^−1] | KL, rate of M-protein level increase (tumor growth rate), estimate (serum M-protein; 37 patients) [wk^−1] | MTD ([2]; administered daily) [mg] | MTD ([2]; administered on an every other day schedule) [mg] |
| --- | --- | --- | --- | --- | --- |
| Nc1cccc2c1C(=O)N([C@H]1CCC(=O)NC1=O)C2=O [(S)-isomer of 4-(amino)-2-(2,6-dioxo(3-piperidyl))-isoindoline-1,3-dione, (S)-4-(amino)-2-(2,6-dioxo(3-piperidyl))-isoindoline-1,3-dione] | higher potency than the racemic mixture |  |  |  |  |
| Nc1cccc2c1C(=O)N(C1CCC(=O)NC1=O)C2=O (centres unmarked) [pomalidomide, 4-amino-2-(2,6-dioxopiperidin-3-yl)isoindole-1,3-dione] |  | 0.128 | 0.036 | 2 | 5 |
